From publication PMC7734235 (Computational and Structural Biotechnology Journal, 2020) come the findings set out here.

The target in this experiment is T1, Rab5 (Homo sapiens, UniProt P20339).
T1 sequence (P20339 1-215): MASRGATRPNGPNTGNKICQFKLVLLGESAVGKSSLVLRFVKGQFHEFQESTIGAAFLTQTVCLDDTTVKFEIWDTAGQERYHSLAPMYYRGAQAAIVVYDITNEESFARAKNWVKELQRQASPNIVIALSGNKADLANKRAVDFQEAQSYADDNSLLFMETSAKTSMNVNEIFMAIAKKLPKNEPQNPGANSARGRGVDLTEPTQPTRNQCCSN
Briefly: intrinsic fluorescence titration. It is filed as binding.

Take `C=C1CC[C@@H]2[C@](C)(CO[C@@H]3O[C@H](CO)[C@@H](O)[C@H](O)[C@H]3O)CCC[C@@]2(C)[C@@H]1CCC1=CCOC1=O` [NAP, Neoandrographolide]: the Kd – broadly, the equilibrium constant for the complex coming apart – stood at 350 ± 30 nM.
